Laboratory results published in patent US11439648B2, “Use of topical BRAF inhibitor compositions for treatment of radiation dermatitis” (Lutris Pharma Ltd., priority 2019, dated 2022).

What follows are compounds tested on MIA PaCa2 K-ras cells (assay: Proliferation of MIA PaCa cells (ATPlite proliferation kit)). Conditions: after 72 hours; concentration giving the highest proliferation (range 0.002 μM to 10 μM); starvation medium; average of 6 wells; presented as percent of over-proliferation vs DMSO control.
Type: cell-based
Method: In this example, effect of the compounds on proliferation of MIA PaCa2 K-ras cells was studied. It was expected that the compounds that induce ERK phosphorylation would also induce proliferation of Mia PaCa cells.
The cells were seeded in starvation medium at 5000 cells/well in a 96 wells plate for 24 hours at 37° C., 5% CO2. The tested compounds were added at different concentrations ranging from 0.002 μM to 10 μM. The controls were untreated cells and vehicle of 0.1% DMSO. The cells were incubated at 37° C., 5% CO2, for 72 hours and then the proliferation was tested using the ATPlite proliferation kit (Perkin-Elmer). Each result represents an average of 6 wells. The results are presented as the percent of over-proliferation compared to the DMSO control.
The concentration of the compounds that provided the highest proliferation was compared to DMSO. DMSO was calculated as 100%.

Structure (SMILES)	% proliferation compared to the DMSO control [%]
CCCS(=O)(=O)Nc1ccc(F)c(C(=O)c2c[nH]c3ncc(-c4ccc(Cl)cc4)cc23)c1F [Vemurafenib]	12
Cc1ccc2c(Nc3ccc(Cl)cc3)nccc2c1Nc1ncccc1-c1ncnc2[nH]cnc12 [C-1]	30
Cc1ccc2c(Nc3cccc(OC(F)(F)F)c3)nccc2c1Nc1ncccc1-c1ncnc2[nH]cnc12 [LUT014]	116
